According to patent US8466177B2 (priority 2007, dated 2013):
Like-named read-outs stand apart in the source and are kept apart here.

Columns and labels:
A/Udorn/72, H3N2 = format: cell-based, influenza virus; conditions: 50 nM
A/PR/8/34 (H1N1) = experiment: microbe, parasite or virus in culture; format: cell-based; conditions: Influenza A virus, MDCK
[1] = tested on: recombinant influenza virus hemagglutinin (A/Wyoming/3/03); format: biochemical; conditions: 5 μM
B/Lee/40 (type B) = experiment: microbe, parasite or virus in culture; format: cell-based; conditions: Influenza B virus, MDCK
A/Udorn/72 (H3N2) = experiment: microbe, parasite or virus in culture; format: cell-based, influenza virus
[2] = tested on: influenza virus (A/Udorn/72, H3N2); format: cell-based; conditions: 10 μM
A/Aichi/68 (H3N2) = experiment: microbe, parasite or virus in culture; format: cell-based; conditions: Influenza A virus, H3N2, MDCK

Compound	virus yield, cell cultures treated after inoculation (A/Udorn/72, H3N2)	EC50 (A/PR/8/34 (H1N1)) [nM]	effect on HA stability (trypsin digestion) [1]	EC50 (B/Lee/40 (type B)) [nM]	EC50 (A/Udorn/72 (H3N2)) [nM]	EC50 (A/Udorn/72 (H3N2); Influenza A virus, H3N2, MDCK) [nM]	effect on membrane fusion [2]	EC50 (A/Aichi/68 (H3N2)) [nM]
Cc1ccc(-c2ccc(/C=C3\SC(=S)N(C4CCCCCCC4)C3=O)o2)cc1 [A17, (Z)-3-cyclooctyl-5-{[(4-methylphenyl)furan-2-yl]methylene}-2-thioxothiazolidin-4-one]	decreased virus yield	–	–	–	–	–	–	–
O=C1/C(=C/c2ccc(-c3ccc(F)cc3)o2)SC(=S)N1C1CCCCC1 [A1, (Z)-3-Cyclohexyl-5-{[5-(4-fluorophenyl)furan-2-yl]-methylene}-2-thioxothiazolidin-4-one]	decreased virus yield	0.6	destabilization effects	1	0.4	≤ 0.4	inhibitory effects	1
